Results: patent US5124150A

Key:
uninfected CEM cells = details: human, 7200 min
Protocol: The cells and the virus were grown in LAV/CEM medium. The medium consists of RPMI 1640, supplemented with 1% L-glutamine, 100 U/ml of Penicillin, 100 μg/ml Streptomycin, 2 μg/ml Polybrene and 10% heat-inactivated fetal bovine serum (HyClone Labs).
The toxicities of the drugs were tested against uninfected CEM cells. The CEM cells were plated as described above, and culture for five days in the presence or absence of drugs. On day five 1 μCi/well of ^3 H-thymidine was added, and cells were harvested 3 hours later. The results are expressed as toxic dose 50 (TD50) and represent the amount of drug necessary to reduce the cell proliferation by 50% as measured through thymidine incorporation.

[1] = tested on: human immunodeficiency virus (HIV) LAV/BRU; details: CEM-F cells; reduces viral replication by 50%
Protocol: AZT was included as a reference compound. The methodology used in this assay is described below:
The cells and the virus were grown in LAV/CEM medium. The medium consists of RPMI 1640, supplemented with 1% L-glutamine, 100 U/ml of Penicillin, 100 μg/ml Streptomycin, 2 μg/ml Polybrene and 10% heat-inactivated fetal bovine serum (HyClone Labs). […] The LAV/BRU of human immunodeficiency virus (HIV) was obtained from Dr. L. Montagnier, Institute Pasteur, Paris, France. The virus was adapted to CEM cells, and infectious virus stocks were stored as cell-free supernatant fluids in 1 ml aliquots in liquid nitrogen. The titer of the stock was determined by an end point titration method using CEM cells in 96-well microtiter plates. The titration was done with ten replicates for each point, and the 50% tissue culture infective dose (TCID50) was calculated using the method of Reed and Muench (Amer. J. Hygiene, 27/3 (1938) 493-497).
25 The CEM cells (1.5×10^5 cells/ml) were placed in 96-well plates and incubated with virus for 45 minutes. After 45 minutes each compound was added in quadruplicate. […] The OD readings (absorbance at 450/630 nm) fall into three categories: Experimentals=values from wells containing cells, viral inoculum and drug; Controls=values from wells with cells and virus (100%); and Background=values from wells with viral inoculum alone. […]

solubility in solvents = type: physicochemical
CEM-SS cells = test: cellular toxicity in CEM-SS cells, XTT assay; type: cell-based; details: human, 144 h
Text: CEM-SS cells were obtained from Owen Weislow at the National Cancer Institute.

[2] = tested on: reverse transcriptase (RTase) derived from avian myeloblastosis virus (AMV); type: biochemical; details: concentrations higher than 3 μg/ml; 1 unit of AMV RTase
HIV antigen = test: expression of HIV antigen in infected MT-4 cells by immunofluorescence; type: cell-based; details: HIV-infected MT-4 cells; concentration higher than 50 μg/ml
Protocol: Expression of HIV antigen was examined by immunofluorescence. When MT-4 cells were infected with HIV, viral antigen positive cells increased with incubation time and all the cells became positive on day 6 after infection.

Row | SMILES | TD50, thymidine incorporation (uninfected CEM cells) | ED50, p24gag antigen capture assay [1] | solubility in dimethylformamide and dimethyl sulfoxide (solubility in solvents) | TD50, XTT assay (CEM-SS cells) | inhibition of AMV RTase activity [2] | HIV antigen positive cells (HIV antigen)
1 | C/C1=C\C=C\C2C=C(CO[C@H]3O[C@H](CO)[C@H](O)[C@H](O)[C@H]3O)C(C)CC23OC(O)C(C3=O)C(O)/C=C/C2(C)C=C(CO)C(C)CC23OC(O)C(C3=O)C(O)/C(C)=C/C=C/C2(C)C=C(CO[C@H]3O[C@H](CO)[C@H](O)[C@H](O)[C@H]3O)C(C)CC23OC(O)C(C3=O)C(O)/C=C/C2(C)C=C(C=O)C(C)CC23OC(O)C(C3=O)C1O (some centres unmarked) | > 100 µg | 2.5 µg | soluble | 200 µg/mL |  | 
2 | Cc1cn([C@H]2C[C@H](N=[N+]=[N-])[C@@H](CO)O2)c(=O)[nH]c1=O [AZT, reference compound] | 4.2 µg |  |  |  |  | 
3 | C/C1=C\C=C\C2(C)C=C(CO[C@H]3O[C@H](CO)[C@H](O)[C@H](O)[C@H]3O)C(C)CC23OC(O)C(C3=O)C(O)/C=C/C2(C)C=C(C=O)C(C)CC23OC(O)C(C3=O)C(O)/C(C)=C/C=C/C2C=C(CO[C@H]3O[C@H](CO)[C@H](O)[C@H](O)[C@H]3O)C(C)CC23OC(O)C(C3=O)C(O)/C=C/C2(C)C=C(C=O)C(C)CC23OC(O)C(C3=O)C1O (some centres unmarked) | > 100 µg | 3.2 µg | soluble | 300 µg/mL | more than 95% | less than 1%
